Measured values: patent publication US6031135A, “Trimethylsphingosine derivatives” (Oncomembrane, Inc., priority 1996, dated 2000)

Key:
B16BL6 melanoma cells = experiment: metastasis of B16BL6 melanoma cells (lung metastatic deposits in mice); assay type: in vivo, mouse; set-up: key to Inhibition of metastasis: +: effective; -: not effective
Procedure: BL6 cells were injected into mice and metastatic deposits in the lung were assessed after various treatments including route and timing, of administration.

water solubility = assay type: physicochemical; settings: particularly at physiologic pH
HL60 cells = experiment: HL60 adhesion on activated platelet-coated solid phase; assay type: cell-based, human; settings: thrombin-stimulated and PMA-stimulated platelets
Procedure: HL60 (a human promylelocytic cell line available from the ATCC under accession number CCL 240) adhesion on resting or activated platelet-coatedsolid phase was evaluated as follows. Each well of a 48-well plate (Costar Scientific, Cambridge, Mass.) was filled with a poly-L-lysine solution (100 μg/ml in PBS) and incubated for 1 hour. Each well then was washed with PBS and then 150 μl of PBS containing 6×10^7 resting or activated platelets were added to each well and the plate was incubated for 1 hour. Plates were centrifuged (300×g for 7 minutes) and incubated a further 30 minutes at room temperature. Bound platelets were fixed by addition of 0.1% (w/v) glutaraldehyde in PBS for 2 minutes at 4° C. Each well was washed with 10 mM glycine in PBS and plates were incubated with 5% (w/v) BSA containing 0.1% (w/v) sodium azide, 10 mM glycine in PBS for 1 hour at room temperature.

[1] = tested on: 47 kDa and 65 kDa proteins; experiment: PMA-stimulated protein phosphorylation in 32P-labeled neutrophils; assay type: cell-based, human; settings: neutrophils pre-incubated with 15-45 μM, then 1.5 μM PMA
Procedure: Excess unbound components were removed by centrifugation and the pellets were resuspended in the same buffer, repeating twice. The cells then were divided into 7 treatment groups, each containing ≈1×10^7 cells in a total volume of 0.4 ml. TMS, SPN or DMS was added to a suspension and incubated at 37° C. for 10 min, followed by addition of PMA to a final concentration of 1.5 μM. Two minutes later, the reaction was terminated by adding 0.1 ml of Laemmli sample buffer and 20 mM EDTA, followed by heating at 100° C. for 5 min. Aliquots were separated through 10% sodium dodecyl sulfate gels using known procedures. ^32 P incorporation was visualized by autoradiography.

PK-C [2] = settings: literature (Hannun & Bell; Merrill & Stevens); cited from earlier work
platelets = experiment: platelet aggregation (aggregometer, thrombin or ADP); assay type: cell-based; set-up: key to Inhiition of PA: +: effective; -: not effective
Procedure: Platelets were isolated from platelet-rich plasma (purchased from the Oregon Red Cross, Portland, Oreg.). Contaminating erythrocytes were removed by centrifugation (80×g for 10 minutes). Platelets were obtained by centrifugation (300×g for 10 minutes), washed once in Tyrode buffer (pH 6.5) containing 22 mM trisodium citrate and 0.35% (w/v) BSA and resuspended in the same buffer to obtain a concentration of 1-2×10^9 platelets/ml. All procedures were performed at room temperature.
A suspension of platelets (about 3.5×10^8 /ml) in Tyrode buffer was preincubated with inhibitor compounds (H-7 [1-(5-isoquinolinylsulfonyl)-2-methylpiperazine, a synthetic protein kinase-C inhibitor purchased from Seikagaku America Inc., St. Petersburg, Fla.], Calphostin-C [a synthetic protein kinase-C inhibitor obtained from Dr. Saitoh, Kyowa Hakko Co., Ltd., Machida, Tokyo, Japan], sphingosine [purchased from Sigma, St. Louis, Mo.] and dimethylsphingosine and trimethylsphingosine [synthesized according to Igarashi et al., Biochem., 28, 6796, 1989]) followed by addition of thrombin or ADP (both purchased from Sigma). Platelet aggregation was evaluated by transmittance change using an aggregometer (Chrono-log Corp., Havertown, Pa.) equipped with a computer analyzer.

PK-C [3] = experiment: PK-C activity bioassay (histone III-S or myelin basic protein substrate); assay type: biochemical, human (A431 cells) or mouse brain; set-up: key: +: effective; -: not effective
Procedure: In another in vitro assay, the influence of various compounds on PK-C activity was monitored. Certain tumor cells present high levels of PK-C activity. The human epidermoid carcinoma cell line A-431 (ATCC No. CRL 1555) was used in a bioassay for PK-C activity as described in Igarashi et al. (supra). Briefly, phosphatidylserine (5 μg/tube) and 1,2-diolein (0.05 μg/tube), with or without an appropriate quantity of a sphingosine derivative sample, were added in an organic solvent, ethanol or ethanol/chloroform, to a 1.5 ml tube (Sarstedt) and the mixture was evaporated under a N2 stream. The lipid mixture was sonicated in about 30 μl of 20 mM Tris-HCl (pH 7.5) for 30 minutes.
The resulting liposomes were supplemented with a buffer mixture comprising 25 mM Tris-HCl (pH 7.5), 10 mM MgCl2, […], 50 μM EGTA, 500 μM CaCl2, […] histone III-S or myelin basic protein and 20 μM γ[^32 P]-ATP (2×10^6 cpm) to a final volume of about 90 μl. […]
The precipitate was collected by centrifugation, washed twice with 1 ml of 25% TCA, then dissolved in 1 ml of 1 M NaOH containing 0.1% deoxycholate with slight heating (80° C. for ten minutes) and counted in a scintillation counter. […]

[4] = Preincubation with free derivative

## CCCCCCCCCCCCCCCC(O)C(CO)[N+](C)(C)C (stereo not shown) [DHTMS]
B16BL6 melanoma cells; Experimental and spontaneous metastasis with liposomal formulation
  Inhibition of metastasis: +

## CCCCCCCCCCCCCC#CC(O)C(CO)[N+](C)(C)C (stereo not shown) [4-alkyn-TMS]
B16BL6 melanoma cells; B16BL6 melanoma cells, no readable footnote on the cell
  Inhibition of metastasis: +

## CCCCCCCCCCCCC/C=C/C(O)C(CO)NC (stereo not shown) [MMS, N-monomethylsphingosine]
Water solubility
  water solubility: less water soluble

## CCCCCCCCCCCCC/C=C/[C@@H](O)[C@@H](N)CO [sphingosine, Sphingosine]
Water solubility
  water solubility: less water soluble
HL60 cells
  HL60 cell binding: minimally inhibited
[1]
  phosphorylation of 47 kDa and 65 kDa proteins: diminished significantly
PK-C [2]
  PK-C activity: inhibited

## CCCCCCCCCCCCC/C=C/C(O)C(CO)N(C)C (stereo not shown) [DMS, N,N-dimethylsphingosine]
Water solubility
  water solubility: less water soluble
HL60 cells
  HL60 cell binding: inhibited strongly
[1]
  phosphorylation of 47 kDa and 65 kDa proteins: diminished significantly

## COC(=O)CCCCCCCCCCCC/C=C/[C@@H](O)[C@H](CO)[N+](C)(C)C [Methylcarboxy TMS]
B16BL6 melanoma cells; [4]
  Inhibition of metastasis: -
platelets
  Inhiition of PA: -
PK-C [3]
  PKC inhibition: -

## C[N+](C)(C)[C@@H](CO)[C@H](O)/C=C/CCCCCCCCCCCCC(=O)O [Carboxy TMS]
B16BL6 melanoma cells; [4]
  Inhibition of metastasis: -
platelets
  Inhiition of PA: -
PK-C [3]
  PKC inhibition: -
